# Read-outs that look alike come from different tables or passages of the source.
# Key:
# [1] = tested on: SKOV3 (wild-type B-Raf) human breast cancer cell line; experiment: Inhibitory concentration against SKOV3 cancer cell line; format: cell-based
# Text: (§1) The biological activity of compounds III and IV is compared against that of the natural product hypothemycin in Table A. Inhibitory concentrations against three cancer cell lines is provided. COLO829 B is a human melanoma cancer cell line having a B-Raf V600E mutation. HT29 is a human colon cancer cell line also having a B-Raf V600E mutation. SKOV3 is a human […] cancer cell line having wild-type B-Raf. Additionally, Ki and Kinact for ERK2 are provided.
# [2] = tested on: HT29 (B-Raf V600E) human colon cancer cell line; experiment: Inhibitory concentration against HT29 cancer cell line; format: cell-based
# Text: as §1
# ERK2 = ERK2 (Homo sapiens, UniProt P28482); experiment: ERK2 Binding; conditions: for kinact: read-out: ERK2 Binding Kinact
# Chain of ERK2 (P28482 whole entry, species assumed): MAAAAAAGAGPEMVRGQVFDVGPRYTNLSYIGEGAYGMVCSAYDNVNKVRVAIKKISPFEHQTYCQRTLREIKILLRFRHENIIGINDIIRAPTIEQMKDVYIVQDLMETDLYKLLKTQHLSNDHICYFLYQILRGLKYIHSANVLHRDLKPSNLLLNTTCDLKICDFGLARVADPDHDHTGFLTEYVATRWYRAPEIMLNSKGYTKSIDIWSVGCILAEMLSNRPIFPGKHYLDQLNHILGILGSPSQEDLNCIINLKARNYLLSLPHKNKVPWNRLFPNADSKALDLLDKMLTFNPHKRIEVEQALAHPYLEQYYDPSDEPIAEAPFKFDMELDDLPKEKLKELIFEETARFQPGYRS
# Text: as §1
# [3] = tested on: COLO829 (B-Raf V600E) human melanoma cancer cell line; experiment: Inhibitory concentration against COLO829 cancer cell line; format: cell-based
# Text: as §1
# panel of 124 kinases = conditions: cited from earlier work
# [4] = SK-OV-3, SKOV3 cell line, wild-type B-Raf, read-out: Inhibitory Concentration (IC50) SKOV3 (wild-type B-Raf)
# [5] = HT-29, HT29 human colon cancer cell line, B-Raf V600E, read-out: Inhibitory Concentration (IC50) HT29 (B-Raf V600E)
# [6] = COLO-829, COLO829 human melanoma cell line, B-Raf V600E, read-out: Inhibitory Concentration (IC50) COLO829 (B-Raf V600E)
"IC50 [1, 4]","IC50 [2, 5]",Ki (ERK2; read-out: ERK2 Binding Ki),"IC50 [3, 6]",Compound,kinact (ERK2),"IC50 ([1]; SK-OV-3, read-out: Inhibitory Concentration (IC50) SKOV3 (wild-type B-Raf))","IC50 ([2]; Homo sapiens, HT-29, read-out: Inhibitory Concentration (IC50) HT29 (B-Raf V600E))",Ki (ERK2),number of kinases without active site cysteine inhibited (panel of 124 kinases; of 105 kinases not having the active site cysteine),number of active site cysteine kinases inhibited (panel of 124 kinases; of the 19 kinases having the active site cysteine),number of kinases inhibited (panel of 124 kinases; of the whole panel of 124 kinases),"IC50 ([3]; Homo sapiens, COLO-829, read-out: Inhibitory Concentration (IC50) COLO829 (B-Raf V600E))"
74000 nM,860 nM,3100 ± 400 nM,360 nM,C[C@H]1C/C=C\C(=O)[C@@H](O)[C@@H](O)COCc2cc(O)cc(O)c2C(=O)O1 [Compound III],9.1e-05 s⁻¹,,,,,,,
,,,,"COc1cc(O)c2c(c1)[C@H]1O[C@@H]1C[C@H](O)[C@H](O)C(=O)/C=C\C[C@H](C)OC2=O [Hypothemycin, hypothemycin]",0.005 ± 2e-06 s⁻¹,4000 nM,260 nM,2700 ± 800 nM,2,18,20,46 nM
> 100000 nM,1420 nM,,310 nM,C[C@@H]1/C=C\C(=O)[C@@H](O)[C@@H](O)COCc2cc(O)cc(O)c2C(=O)O[C@H]1C [IV],,,,,,,,

# — US7601852B2, “Macrocyclic kinase inhibitors” (Kosan Biosciences Incorporated, priority 2006, dated 2009)
